Test system: 422866-222-R5-J1-PDC spheroids with HUVEC/MSC, viability
Assay: Anticancer human tumor 422866-222-R5-J1-PDC patient-derived pancreatic adenocarcinoma cell line growth inhibition [GQUAD]
Conditions: for IC50: curve of first compound; for viability, T/C: stronger effect = lower value
Summary of the method: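 Tumor cells were grown as complex spheroids with HUVEC endothelial cells and mesenchymal stem cells as stroma. G-quadruplex stabilizers were combined with targeted agents over half-log dilutions from near the clinical Cmax, or from 10 microM.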

[1] = second compound 0.0316 µM, first compound 0.0316 µM
[2] = second compound 0.0316 µM, first compound 0.1 µM
[3] = second compound 0.0316 µM, first compound 0.316 µM
[4] = second compound 0.0316 µM, first compound 1 µM
[5] = second compound 0.0316 µM, first compound 3.16 µM
[6] = second compound 0.0316 µM, first compound 10 µM
[7] = second compound 0.1 µM, first compound 0.0316 µM
[8] = second compound 0.1 µM, first compound 0.1 µM
[9] = second compound 0.1 µM, first compound 0.316 µM
[10] = second compound 0.1 µM, first compound 1 µM
[11] = second compound 0.1 µM, first compound 3.16 µM
[12] = second compound 0.1 µM, first compound 10 µM
[13] = second compound 0.316 µM, first compound 0.0316 µM
[14] = second compound 0.316 µM, first compound 0.1 µM
[15] = second compound 0.316 µM, first compound 0.316 µM
[16] = second compound 0.316 µM, first compound 1 µM
[17] = second compound 0.316 µM, first compound 3.16 µM
[18] = second compound 0.316 µM, first compound 10 µM
[19] = second compound 1 µM, first compound 0.0316 µM
[20] = second compound 1 µM, first compound 0.1 µM
[21] = second compound 1 µM, first compound 0.316 µM
[22] = second compound 1 µM, first compound 1 µM
[23] = second compound 1 µM, first compound 3.16 µM
[24] = second compound 1 µM, first compound 10 µM
[25] = second compound 3.16 µM, first compound 0.0316 µM
[26] = second compound 3.16 µM, first compound 0.1 µM
[27] = second compound 3.16 µM, first compound 0.316 µM
[28] = second compound 3.16 µM, first compound 1 µM
[29] = second compound 3.16 µM, first compound 3.16 µM
[30] = second compound 3.16 µM, first compound 10 µM
[31] = second compound 10 µM, first compound 0.0316 µM
[32] = second compound 10 µM, first compound 0.1 µM
[33] = second compound 10 µM, first compound 0.316 µM
[34] = second compound 10 µM, first compound 1 µM
[35] = second compound 10 µM, first compound 3.16 µM
[36] = second compound 10 µM, first compound 10 µM
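Further: spheroids exposed to compounds for seven days before reading.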
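Wherever viability, T/C is given: percent viability relative to DMSO vehicle control taken as 100%.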

## O=C(NO)c1cnc(N2CCN(S(=O)(=O)c3ccc4ccccc4c3)CC2)nc1 + Cc1[nH]c2ccc(F)cc2c1-c1nc2c3cccnc3c3ncccc3c2[nH]1
Second compound 0.0316 µM
  IC50: > 10 µM
Second compound 0.1 µM
  IC50: > 10 µM
Second compound 0.316 µM
  IC50: > 10 µM
Second compound 1 µM
  IC50: > 10 µM
Second compound 3.16 µM
  IC50: > 10 µM
Second compound 10 µM
  IC50: > 10 µM
[1]
  viability, T/C: 78.6%
[2]
  viability, T/C: 69.2%
[3]
  viability, T/C: 64.7%
[4]
  viability, T/C: 68.1%
[5]
  viability, T/C: 71.6%
[6]
  viability, T/C: 75.4%
[7]
  viability, T/C: 81.1%
[8]
  viability, T/C: 68.3%
[9]
  viability, T/C: 56.4%
[10]
  viability, T/C: 61%
[11]
  viability, T/C: 74.2%
[12]
  viability, T/C: 72.3%
[13]
  viability, T/C: 77.5%
[14]
  viability, T/C: 68%
[15]
  viability, T/C: 71.4%
[16]
  viability, T/C: 61.7%
[17]
  viability, T/C: 63.2%
[18]
  viability, T/C: 78.1%
[19]
  viability, T/C: 64.4%
[20]
  viability, T/C: 61.6%
[21]
  viability, T/C: 62.6%
[22]
  viability, T/C: 61.2%
[23]
  viability, T/C: 75%
[24]
  viability, T/C: 70%
[25]
  viability, T/C: 56%
[26]
  viability, T/C: 56.6%
[27]
  viability, T/C: 51.6%
[28]
  viability, T/C: 63.3%
[29]
  viability, T/C: 67.8%
[30]
  viability, T/C: 66%
[31]
  viability, T/C: 60.1%
[32]
  viability, T/C: 47.8%
[33]
  viability, T/C: 59.5%
[34]
  viability, T/C: 57%
[35]
  viability, T/C: 51%
[36]
  viability, T/C: 64.4%

## COc1ccc([C@@H](O)c2cc(-c3ncnc4cc(N5CCOCC5)ccc34)c(F)cc2Cl)nn1 + Cc1cnc(CNC(=O)c2c(=O)c3ccc(N4CCCN(C)CC4)nc3n3c2sc2ccccc23)cn1
Second compound 0.0316 µM
  IC50: 1.39 µM
Second compound 0.1 µM
  IC50: 2.05 µM
Second compound 0.316 µM
  IC50: 3.66 µM
Second compound 1 µM
  IC50: 2.36 µM
Second compound 3.16 µM
  IC50: 1.94 µM
Second compound 10 µM
  IC50: 1.8 µM
[1]
  viability, T/C: 106%
[2]
  viability, T/C: 82.7%
[3]
  viability, T/C: 78.8%
[4]
  viability, T/C: 47.9%
[5]
  viability, T/C: 41.9%
[6]
  viability, T/C: 35.5%
[7]
  viability, T/C: 94.8%
[8]
  viability, T/C: 87.4%
[9]
  viability, T/C: 68.5%
[10]
  viability, T/C: 57.1%
[11]
  viability, T/C: 47.2%
[12]
  viability, T/C: 39.3%
[13]
  viability, T/C: 97.3%
[14]
  viability, T/C: 85.3%
[15]
  viability, T/C: 72.8%
[16]
  viability, T/C: 60.2%
[17]
  viability, T/C: 54%
[18]
  viability, T/C: 40.4%
[19]
  viability, T/C: 97.3%
[20]
  viability, T/C: 87.4%
[21]
  viability, T/C: 83.4%
[22]
  viability, T/C: 62.8%
[23]
  viability, T/C: 45.1%
[24]
  viability, T/C: 35.5%
[25]
  viability, T/C: 90.9%
[26]
  viability, T/C: 80.1%
[27]
  viability, T/C: 78.5%
[28]
  viability, T/C: 57.6%
[29]
  viability, T/C: 43.6%
[30]
  viability, T/C: 34%
[31]
  viability, T/C: 81.9%
[32]
  viability, T/C: 78%
[33]
  viability, T/C: 70.3%
[34]
  viability, T/C: 55.9%
[35]
  viability, T/C: 44.1%
[36]
  viability, T/C: 31.6%

From PubChem BioAssay AID2060511 (Molecular Pharmacology Branch, DTP, NCI, 2025)
